Patent US8946142B2, “Beta-arrestin effectors and compositions and methods of use thereof” (Trevena, Inc., priority 2012, dated 2015)
Where two headings read alike, the source gives them in different places. Where a SMILES comes first, the peptide text is derived from it. Bridges are numbered along the chain shown (N, C = ends). [ ]: non-standard residue; d: D form. The star is where a group is joined. Val(3-OH) = CC(C)(O)[C@H](N)C(=O)O; Tle = CC(C)(C)[C@H](N)C(=O)O; Ac6c = NC1(C(=O)O)CCCCC1; NHCH2tBu = CC(C)(C)CN*; Aib = CC(C)(N)C(=O)O; Sar = CNCC(=O)O

Key:
[1] = biological target: T1, rat AT1aR (Rattus norvegicus, UniProt P25095); assay: beta-arrestin2 recruitment assay (PathHunter), rat AT1aR; type: cell-based; conditions: for Emax: 1 h, read-out: Span (relative to hAngII)
T1 sequence (P25095 1-359): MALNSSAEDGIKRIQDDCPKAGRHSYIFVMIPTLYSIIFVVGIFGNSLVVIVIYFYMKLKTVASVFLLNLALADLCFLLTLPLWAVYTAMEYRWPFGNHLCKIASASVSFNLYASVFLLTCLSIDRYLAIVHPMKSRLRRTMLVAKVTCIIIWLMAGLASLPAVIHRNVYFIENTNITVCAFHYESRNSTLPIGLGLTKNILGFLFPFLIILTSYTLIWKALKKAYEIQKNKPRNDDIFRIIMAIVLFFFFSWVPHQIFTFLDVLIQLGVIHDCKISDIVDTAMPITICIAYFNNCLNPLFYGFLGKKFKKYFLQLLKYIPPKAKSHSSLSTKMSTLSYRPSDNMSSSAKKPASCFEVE
Experimental: (§1) The proximal event in β-arrestin function mediated by GPCRs is recruitment to receptors following ligand binding and receptor phosphorylation by GRK's. Thus, the measure of β-arrestin recruitment was used to determine ligand efficacy for β-arrestin function.
(§2) B-arrestin-2 recruitment to the human and rat angiotensin 2 type 1 receptor (human AT1R and rat AT1aR, respectively) was measured with the PathHunter™ μl-arrestin assay (DiscoveRx Corporation, Fremont Calif.). Cells, plasmid(s), and detection reagent(s) were purchased from DiscoveRx, and assays were performed per manufacturer's instructions. Human AT1R and rat AT1aR were cloned into the pCMV-ProLink vector, verified by sequencing, and transfected into PathHunter β-arrestin HEK293 cells. Stably transfected clonal cell lines were selected with Hygromycin and G418. These clonal cell lines were used for all experiments.
(§3) For assays, 4,000-8,000 cells were seeded per well in 384-well microplates “HiBase” small-volume plate in volumes of 20 uL and grown overnight in the incubator (37° C., 5% CO2, saturated humidity). Peptides were dissolved in DMSO to a concentration of 10 mM. Peptides were then further diluted in assay buffer (Hank's balanced salt solution with 20 mM HEPES) to add peptide to the cells to reach final concentrations ranging from 100 μM to 1 pM. Cells were then incubated for 60 minutes at 37° C. in 5% CO2, followed by addition of 2 μL of PathHunter Detection Reagent to each well. The microplates were then incubated at room temperature for 60 minutes, and then luminescence was measured using a PHERAstar Plus microplate reader from BMG Labtech. B-arrestin-2 recruitment to receptors was measured as relative luminescence intensity expressed in arbitrary units.

[2] = biological target: T2, human AT1R (Homo sapiens, UniProt P30556); assay: beta-arrestin2 recruitment assay (PathHunter), human AT1R; type: cell-based; conditions: for Emax: 1 h, read-out: Span (relative to hAngII)
T2 sequence (P30556 1-359): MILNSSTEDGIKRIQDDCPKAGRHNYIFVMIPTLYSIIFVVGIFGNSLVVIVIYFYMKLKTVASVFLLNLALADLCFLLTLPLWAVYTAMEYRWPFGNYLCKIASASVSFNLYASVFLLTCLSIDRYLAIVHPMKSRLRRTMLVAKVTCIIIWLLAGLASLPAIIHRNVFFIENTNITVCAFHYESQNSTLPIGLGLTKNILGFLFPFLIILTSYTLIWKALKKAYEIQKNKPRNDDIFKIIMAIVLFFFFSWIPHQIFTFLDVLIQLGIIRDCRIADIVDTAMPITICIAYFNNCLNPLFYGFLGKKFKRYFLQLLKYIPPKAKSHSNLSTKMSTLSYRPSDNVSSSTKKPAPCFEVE
Experimental: as §1, §2, §3

Structure (SMILES)	Emax [1] [%]	EC50 ([1]; read-out: EC50) [nM]	EC50 ([1]; read-out: pEC50 (converted)) [nM]	Emax [2] [%]	EC50 ([2]; read-out: EC50) [nM]	EC50 ([2]; read-out: pEC50 (converted)) [nM]
CNCC(=O)N[C@@H](CCCNC(=N)N)C(=O)N[C@H](C(=O)N[C@@H](Cc1ccc(O)cc1)C(=O)N[C@H](C(=O)N[C@@H](Cc1c[nH]cn1)C(=O)N1CCC[C@H]1C(=O)N[C@H](C(=O)O)C(C)C)C(C)(C)C)C(C)C [SEQ ID NO: 29, Sar-Arg-Val-Tyr-AA02-His-Pro-Val] (H-[Sar]RVY[Tle]HPV-OH)	< 105	> 3.2	> 3.16	< 101	> 3.2	> 3.16
CNCC(=O)N[C@@H](CCCNC(=N)N)C(=O)N[C@H](C(=O)N[C@@H](Cc1ccc(O)cc1)C(=O)NC1(C(=O)N[C@@H](Cc2c[nH]cn2)C(=O)N2CCC[C@H]2C(=O)N[C@H](C(=O)O)C(C)(C)O)CCCCC1)C(C)C [SEQ ID NO: 31, Sar-Arg-Val-Tyr-cyHex-His-Pro-AA03] (H-[Sar]RVY[Ac6c]HP[Val(3-OH)]-OH)	< 105	> 3.2	> 3.16	< 101	> 3.2	> 3.16
CNCC(=O)N[C@@H](CCCNC(=N)N)C(=O)N[C@H](C(=O)N[C@@H](Cc1ccc(O)cc1)C(=O)NC1(C(=O)N[C@@H](Cc2c[nH]cn2)C(=O)N2CCC[C@H]2C(=O)NCC(=O)O)CCCCC1)C(C)C [SEQ ID NO: 32, Sar-Arg-Val-Tyr-cyHex-His-Pro-Gly] (H-[Sar]RVY[Ac6c]HPG-OH)	< 105	> 3.2	> 3.16	< 101	> 3.2	> 3.16
CNCC(=O)N[C@@H](CCCNC(=N)N)C(=O)N[C@H](C(=O)N[C@@H](Cc1ccc(O)cc1)C(=O)NC1(C(=O)N[C@@H](Cc2c[nH]cn2)C(=O)N2CCC[C@H]2C(=O)N[C@@H](CS)C(=O)O)CCCCC1)C(C)C [SEQ ID NO: 34, Sar-Arg-Val-Tyr-cyHex-His-Pro-Cys] (H-[Sar]RVY[Ac6c]HPC-OH)	< 105	> 3.2	> 3.16	< 101	> 3.2	> 3.16
CNCC(=O)N[C@@H](CCCNC(=N)N)C(=O)N[C@H](C(=O)N[C@@H](Cc1ccc(O)cc1)C(=O)NC1(C(=O)N[C@@H](Cc2c[nH]cn2)C(=O)N2CCC[C@H]2C(=O)NC(C)(C)C(=O)O)CCCCC1)C(C)C [SEQ ID NO: 35, Sar-Arg-Val-Tyr-cyHex-His-Pro-AA01] (H-[Sar]RVY[Ac6c]HP[Aib]-OH)	< 105	> 3.2	> 3.16	< 101	> 3.2	> 3.16
CNCC(=O)N[C@@H](CCCNC(=N)N)C(=O)N[C@H](C(=O)N[C@@H](Cc1ccc(O)cc1)C(=O)NC1(C(=O)N[C@@H](Cc2c[nH]cn2)C(=O)N2CCC[C@H]2C(=O)O)CCCCC1)C(C)C [SEQ ID NO: 41, Sar-Arg-Val-Tyr-cyHex-His-Pro] (H-[Sar]RVY[Ac6c]HP-OH)	< 105	> 3.2	> 3.16	< 101	> 3.2	> 3.16
CNCC(=O)N[C@@H](CCCNC(=N)N)C(=O)N[C@H](C(=O)N[C@@H](Cc1ccc(O)cc1)C(=O)NC1(C(=O)N[C@@H](Cc2c[nH]cn2)C(=O)N2CCC[C@H]2C(=O)N[C@@H](CCC(=O)O)C(=O)O)CCCCC1)C(C)C [SEQ ID NO: 43, Sar-Arg-Val-Tyr-cyHex-His-Pro-Glu] (H-[Sar]RVY[Ac6c]HPE-OH)	< 105	> 3.2	> 3.16	< 101	> 3.2	> 3.16
CC[C@H](C)[C@@H]1NC(=O)[C@H](NC(=O)[C@@H](NC(=O)[C@H](CCCNC(=N)N)NC(=O)CNC)C(C)C)CSSC[C@@H](C(=O)N[C@H](C)C(=O)O)NC(=O)[C@H](Cc2c[nH]cn2)NC1=O [SEQ ID NO: 52, Sar-Arg-Val-D-Cys-Ile-His-Cys-D-Ala] (H-[Sar]RV[dC]IHC[dA]-OH; disulfide 4-7; N-terminus and C-terminus assumed)	< 105			< 101		

Second part, the compound after the results:

Emax [1] [%]	EC50 ([1]; read-out: EC50) [nM]	EC50 ([1]; read-out: pEC50 (converted)) [nM]	Emax [2] [%]	EC50 ([2]; read-out: EC50) [nM]	EC50 ([2]; read-out: pEC50 (converted)) [nM]	Structure (SMILES)
< 105	> 3.2	> 3.16	< 101	> 3.2	> 3.16	CNCC(=O)N[C@@H](CCCNC(=N)N)C(=O)N[C@H](C(=O)N[C@@H](Cc1ccc(O)cc1)C(=O)N[C@H](C(=O)N[C@@H](Cc1c[nH]cn1)C(=O)N1CCC[C@H]1C(=O)N[C@H](C(=O)O)[C@@H](C)O)C(C)(C)C)C(C)C [SEQ ID NO: 30, Sar-Arg-Val-Tyr-AA02-His-Pro-Thr] (H-[Sar]RVY[Tle]HPT-OH)
< 105	> 3.2	> 3.16	< 101	> 3.2	> 3.16	CNCC(=O)N[C@@H](CCCNC(=N)N)C(=O)N[C@H](C(=O)N[C@@H](Cc1ccc(O)cc1)C(=O)NC1(C(=O)N[C@@H](Cc2c[nH]cn2)C(=O)N2CCC[C@H]2C(=O)N[C@@H](CC(N)=O)C(=O)O)CCCCC1)C(C)C [SEQ ID NO: 36, Sar-Arg-Val-Tyr-cyHex-His-Pro-Asn] (H-[Sar]RVY[Ac6c]HPN-OH)
< 105	> 3.2	> 3.16	< 101	> 3.2	> 3.16	CNCC(=O)N[C@@H](CCCNC(=N)N)C(=O)N[C@H](C(=O)N[C@@H](Cc1ccc(O)cc1)C(=O)NC(C)(C)C(=O)N[C@@H](Cc1c[nH]cn1)C(=O)N1CCC[C@H]1C(=O)N[C@H](C(=O)O)[C@@H](C)O)C(C)C [SEQ ID NO: 40, Sar-Arg-Val-Tyr-AA01-His-Pro-Thr] (H-[Sar]RVY[Aib]HPT-OH)
			< 101	> 3.2	> 3.16	CNCC(=O)N[C@@H](CCCNC(=N)N)C(=O)N[C@H](C(=O)N[C@@H](Cc1ccc(O)cc1)C(=O)NC1(C(=O)N[C@@H](Cc2c[nH]cn2)C(=O)N2CCC[C@H]2C(=O)NCC(C)(C)C)CCCCC1)C(C)C [SEQ ID NO: 47, Sar-Arg-Val-Tyr-cyHex-His-Pro-NH-neopentyl] (H-[Sar]RVY[Ac6c]HP-NHCH2tBu)
< 105	> 3.2	> 3.16	< 101	> 3.2	> 3.16	CCNC(=O)[C@@H]1CCCN1C(=O)[C@H](Cc1c[nH]cn1)NC(=O)C1(NC(=O)[C@H](Cc2ccc(O)cc2)NC(=O)[C@@H](NC(=O)[C@H](CCCNC(=N)N)NC(=O)CNC)C(C)C)CCCCC1 [SEQ ID NO: 48, Sar-Arg-Val-Tyr-cyHex-His-Pro-NH-ethyl] (H-[Sar]RVY[Ac6c]HP-NHEt)
< 105	> 3.2	> 3.16	< 101	> 3.2	> 3.16	CNCC(=O)N[C@@H](CCCNC(=N)N)C(=O)N[C@H](C(=O)N[C@@H](Cc1ccc(O)cc1)C(=O)NC1(C(=O)N[C@@H](Cc2c[nH]cn2)C(=O)N2CCC[C@H]2C(=O)NC)CCCCC1)C(C)C [SEQ ID NO: 49, Sar-Arg-Val-Tyr-cyHex-His-Pro-NH-methyl] (H-[Sar]RVY[Ac6c]HP-NHMe)
< 105	> 3.2	> 3.16	< 101	> 3.2	> 3.16	CNCC(=O)N[C@@H](CCCNC(=N)N)C(=O)N[C@H](C(=O)N[C@@H](Cc1ccc(O)cc1)C(=O)NC1(C(=O)N[C@@H](Cc2c[nH]cn2)C(=O)N2CCC[C@H]2C(=O)N[C@@H](CCCCN)C(=O)O)CCCCC1)C(C)C [SEQ ID NO: 50, Sar-Arg-Val-Tyr-cyHex-His-Pro-Lys] (H-[Sar]RVY[Ac6c]HPK-OH)
